Several values for one entry are separate records, joined by “and”; a condition that tells them apart may be missing. Equal values may be shown once. Entries after “also recorded” stand apart in the source; their conditions may differ. Where no end group is shown, it is not given here.
Legend:
[1] = tested on: melanophores and xanthophores; conditions: for Direction of chromatophore transdifferentiation from macro observations and photographs of whole animals: fed as in Examples A-C; for Cells containing both melanosomes and pterinosomes (melanophore to xanthophore transdifferentiation), light microscopy: Gomori trichrome stained skin, zinc acetate 7 and 12 days; for Cells containing both melanosomes and pterinosomes (melanophore to xanthophore transdifferentiation), light microscopy / Time on feeding at which the animal died: substance sprinkled on food every other day; for Cells containing both melanosomes and pterinosomes (melanophore to xanthophore transdifferentiation), light microscopy / Colour of the animal by inspection: cGMP 22 days, GMP 67 days; for Identification as transdifferentiation agent by the assay: summary statement
Text: Larval Axolotls have an epidermis on a thin basement membrane, under which is a thick collagen layer (green when stained with Gomori trichrome for light microscopy.) Only 3 types of cells are present immediately below and slightly embedded in the collagen layer-(a) fibroblasts, which are generally fusiform and have a characteristic light and ultrastructural appearance, (b) melanophores, which contain numerous round or oval black melanosomes, as well as some premelanosomes, and (c) xanthophores, which, contain organelles known as pterinosomes. These appear as vacuoles in light microscopy and vacuoles with wispy or concentric layered material in electron microscopy. In general, melanosomes are normally found only in melanophores and pterinosomes in xanthophores.
All Axolotls were 3-5 cm in length at the beginning of the experiment and were obtained from the Indiana University Axolotl Colony, Bloomington, Ind.).
Temperature was 22 °C with a 12 hour light/12 hour dark
photoperiod. Water was changed daily before feeding, and when the animals were removed from feeding an hour later. They were fed about every day. Every other day, the experimental substance was sprinkled on the beef or fish pellets. All experimental reagents were obtained from Sigma (St. Louis Mo.). […] For feeding, beef liver was placed on the raised bottom partially in and partially out of the water. This permitted the animal to sense the food in the water but prevented the cGMP sprinkled on the beef from washing away. […] For feeding the animals were transferred to smaller plastic containers (weighing canoes) which have one side sloped. The pellets were placed on the slope, partially in and partially out of the water. This permitted the animal to sense the food in the water but prevented the cGMP sprinkled on the pellet from washing away. Deer Park Spring Water (Breingsville, Pa.) was used exclusively.
The animals were observed about weekly under an Olympus SZ stereomicroscope and most were photographed prior to sacrifice or shortly (hours) after death. Animals were fixed in 10% Formalin and 4 mm punch biopsies of skin were processed routinely for histology (Gomori Trichrome) by Charles River Laboratories (Wilmington, Mass.). Slides were examined in an Olympus (Woodbury, N.Y.) BX40 microscope.
Three animals (a control and two GMP fed animals) were biopsied with a 2 mm punch and fixed in Trump=s fixative for 24 hours, and processed routinely for electron microscopy. They were postfixed in 2% osmium tetroxide, dehydrated in a serials of alcohols and embedded in Epon-Araldite (1:1). Processing and photography were performed at the Electron Imaging Facility, Rutger=s University, Piscataway, N.J.

[2] = tested on: human melanoma cell line G-361; experiment: Transdifferentiation of G-361 melanoma cells in culture; assay type: cell-based; design: Phenotypic changes in the cell population: dose or concentration left out as unconfirmed; conditions: 7 days
Description: A human melanoma cell line. G-361, was purchased from the American Type Culture Collection (ATCC catalog number CRL-1424, Manassas, Va.) in a cryopreserved state. Upon receipt, the tube containing the frozen cells was rapidly thawed in a 371C water bath by swirling the bottom ⅓ of the tube for less than 2 minutes. All subsequent steps were conducted using standard methods of sterile technique. The cells were transferred to a T-25 flask containing 5 ml of pre-warmed McCoy=s 5A modified medium (Life Technologies, Rockville, Md.) and incubated at 371 C in a humidified CO2 incubator. After approximately 24 hours, the original medium was removed and replaced with fresh medium and the cells allowed to grow until they reached approximately 70-80% confluency with the medium being replaced every 2-3 days as needed. At this point, the cells were subcultured into Leighton tubes at low cell densities using well known typsin-EDTA subculturing techniques. After subculturing, the cells were allowed to re-establish their growth for 48 hours prior to administration of drugs.
Few cells resembled a normal melanocyte phenotype. […] The majority of the cells appeared to be epithelial in morphology. […] The microscopic phenotypic heterogeneity observed was compatible with karyotypic analysis provided by ATCC showing a heterogeneous population with regards to chromosome number.
Later, beta-carotene in tetrahydrofuran was added to McCoy=s 5A modified medium to a final concentration of about 33 mg/ml with a final concentration of 0.5% THF. This supplemented medium was added to the Leighton tubes after removal of un-supplemented medium and was replaced every 2 days during the 7 clay experimental period. At the end of 7 days, the cultures were fixed in methanol and the cover slips were Giemsa stained.
Methods: The melanoma cell line G-361, described in Example 1.4 above was used Guanosine was added to McCoy=s 5A modified medium to a final concentration of 3 mg/ml. This supplemented medium was added to the Leighton tubes after removal of unsupplemented medium and was replaced every 2 days during the 7 day experimental period. At the end of 7 days, the cultures were fixed in methanol and the cover slips were Giemsa stained.
Methods: The melanoma cells line G-361, described in Example 14 above was used Guanosine was added to McCoy=s 5A modified medium to final concentration of 3 mg/ml. This supplemented medium was added to the Leighton tubes after removal of un-supplemented medium and was replaced every 2 days for 7 days. Beta-carotene in THF was added to McCoy=s 5A modified medium at a final concentration of 33 mg/ml with a final concentration of 0.5% THF. […]

melanocytes = conditions: Dupin et al. 2000; cited from earlier work
chromatophores = conditions: literature reports (Frost; Thibaudeau and Holder; Bagnara); cited from earlier work

Row | Compound | Direction of chromatophore transdifferentiation from macro observations and photographs of whole animals [1] | Cells containing both melanosomes and pterinosomes (melanophore to xanthophore transdifferentiation), light microscopy [1] | Identification as transdifferentiation agent by the assay [1] | also measured
1 | Nc1cc[nH]c(=O)n1 [cytosine] | transdifferentiates xanthophores to melanophores | – | – | –
2 | Cl.Cl.Cl.Cl.NCCNCCNCCN [trien, triethylenetetramine tetrahydrochloride] | transdifferentiate melanophores to xanthophores | – | – | –
3 | CC1=C(/C=C/C(C)=C/C=C/C(C)=C/C=C/C=C(C)/C=C/C=C(C)/C=C/C2=C(C)CCCC2(C)C)C(C)(C)CCC1 [Beta-carotene, beta-carotene] | – | – | – | Cell death compared with control cultures ([2]; about 33 mg/ml in 0.5% THF): a large segment of the starting population died; Mitotic figures in remaining cell population ([2]; about 33 mg/ml in 0.5% THF): no mitotic figures observed; Morphology of remaining cells ([2]; about 33 mg/ml in 0.5% THF, Giemsa stain): most had triangular morphology and a large nucleus, consistent with neural cells, or were fusiform in shape, consistent with neuroglial or neurilemmal (Schwann) cells
4 | Nc1nc2c(ncn2[C@@H]2O[C@H](COP(=O)(O)O)[C@@H](O)[C@H]2O)c(=O)[nH]1 [GMP, guanosine 5′-monophosphate] | – | clear evidence of transdifferentiation by the presence of cells containing both pterinosomes and melanosomes; also recorded: transdifferentiating from a melanocyte into a xanthophore | transdifferentiation agents | Colour of the animal by inspection [1]: markedly lighter by inspection and had a yellow hue; Cells and organelles in skin, electron microscopy ([1]; fed 67 days): many cells in which both melanosomes and pterinosomes were, present; also recorded: organelles which appeared to be hybrids of melanosomes and pterinosomes
5 | Endothelian 3: Factor reported by Dupin et al. to induce conversion of melanocytes into glial cells (CTCFTYKDKECVYYCHLDIIW; ends and bridges not checked; cysteine pairing not given here; UniProt P14138 97-117, looked up) | – | – | – | Conversion of melanocytes into glial cells (melanocytes): induce the conversion of melanocytes into glial cells
6 | Nc1nc2c(ncn2[C@@H]2O[C@H](CO)[C@@H](O)[C@H]2O)c(=O)[nH]1 [guanosine] | transdifferentiate melanophores to xanthophores | – | – | Phenotypic changes in the cell population ([2]; Giemsa stain): many cells with an increased nuclear to cytoplasmic ratio; also recorded: increased number of triangular cells consistent with neural phenotypes; Transdifferentiation of Axolotl chromatophores (chromatophores): acted as a transdifferentiation agent; also recorded: transdifferentiate from one pigmented cell type to another
7 | Nc1nc2c(ncn2[C@@H]2O[C@@H]3COP(=O)(O)O[C@H]3[C@H]2O)c(=O)[nH]1 [cGMP, guanosine 3′,5′-cyclic monophosphate] | – | presence of melanosomes and pterinosomes in several cells | transdifferentiation agents | Colour of the animal by inspection [1]: lighter by inspection; Time on feeding at which the animal died [1]: 22 days
8 | O[C@H]1[C@H](O)[C@@H](O)[C@H](O)[C@@H](O)[C@H]1O [myo-inositol] | transdifferentiate melanophores to xanthophores | – | transdifferentiation agents | –
9 | CC(=O)[O-].CC(=O)[O-].[Zn+2] [Zinc Acetate, reference compound] | – | cells with both melanosomes and pterinosomes | transdifferentiation agents | Time on feeding at which the animal died [1]: 7 days and 12 days

Reference: patent publication US8575128B2, “Methods for transdifferentiation of body tissues” (priority 1999, dated 2013)
